# From patent US20080242688A1, “Method 741” (ASTRAZENECA AB, priority 2007, published 2008)
# Where “and” joins values, the source holds several entries; their conditions need not be identical. Equal entries are not always repeated.
# Key:
# dog Purkinje fibre = assay: Dog isolated cardiac Purkinje fibres, action potential; conditions: 0.5 and 1 Hz
# Method: Effects of AZD0328 on cardiac action potentials were assessed in 4 dog Purkinje fibre preparations. (Table 3). The following action potential parameters were measured at the stimulation frequencies 0.5 and 1 Hz: action potential duration at 50% (APD50), 70% (APD70) and 90% (APD90) of repolarisation; the maximum velocity of the action potential upstroke (Vmax); the action potential amplitude (APA) and the resting membrane potential (RMP). At both stimulation frequencies, AZD0328 caused a concentration-dependent prolongation of APD50, APD70 and APD90, with significant effects at 5.6 μM and above. There was also an indication of proarrhythmic potential of the compound.
# [1] = Intestinal transit (charcoal meal, glass bead); conditions: in vivo; rat, oral; read-out: NOAEL on intestinal motility
# Method: Effects of AZD0328 on small intestinal and colorectal motility were investigated in rats using the charcoal meal test and the glass bead test, respectively (Table 3). In the first part, evaluating intestinal transit, a test meal containing charcoal as a non-absorbable marker was administered to rats. In the second part, effects of oral administration of AZD0328 on colorectal transit time was evaluated.
# [2] = target: α7 receptor binding sites (Rattus norvegicus, UniProt Q05941); type: in vivo; conditions: sc, 2-4 h
# α7 receptor binding sites, sequence (Q05941 23-502): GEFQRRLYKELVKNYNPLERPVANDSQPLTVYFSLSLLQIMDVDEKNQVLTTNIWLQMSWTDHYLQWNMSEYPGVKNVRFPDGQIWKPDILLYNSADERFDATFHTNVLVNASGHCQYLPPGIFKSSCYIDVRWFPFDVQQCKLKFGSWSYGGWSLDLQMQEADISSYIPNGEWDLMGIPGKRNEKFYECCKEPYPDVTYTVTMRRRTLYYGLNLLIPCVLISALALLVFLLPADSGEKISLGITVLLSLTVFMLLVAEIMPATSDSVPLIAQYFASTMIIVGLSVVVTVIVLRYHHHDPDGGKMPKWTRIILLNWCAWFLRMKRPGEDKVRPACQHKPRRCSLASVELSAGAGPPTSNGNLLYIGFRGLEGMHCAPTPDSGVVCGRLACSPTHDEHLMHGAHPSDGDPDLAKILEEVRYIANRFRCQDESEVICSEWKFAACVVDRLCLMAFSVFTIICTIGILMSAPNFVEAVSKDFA
# [3] = Multiple dose PK/TK, rabbit; type: in vivo; conditions: day 18; for AUC / Cmax / Tmax: female, New Zealand White, in vivo, sc
# Text: This section provides a summary of the pharmacokinetic and metabolism properties of AZD0328 derived from in vivo studies. […] The derived PK/TK parameters from these studies are presented in Table 4 for single dose studies (DMR4, 0619LR, 20030191PCR, DMO16, DMB10, DMW12, 50190, 0190DD and 03.330/1), and are presented in Table 5 multiple dose PK/TK studies (DMR4, 0612AR, DMB15, 50190, 0190DD and 0295AD).
# dogs = assay: Maximum tolerated dose and 7 days oral toxicity in the dog; type: in vivo
# Method: (§1) Single doses of 4.5 to 17 mg/kg were administrated to test AZD0328 to 2 male and 2 female dogs. […] Signs of nausea and at the higher doses vomiting was seen. In the 7 days repeated dose study 2 male and 2 female dogs were given 35 mg/kg per day. However, vomiting was the major clinical sign recorded during the study.
# [4] = as above; type: in vivo; conditions: both sexes, dog, in vivo, oral; dogs, single doses of 4.5 to 17 mg/kg
# Method: as §1
# ferrets = assay: Emetic potential in ferrets; type: in vivo; conditions: ferret
# Method: The emetic potential of AZD0328 was investigated in ferrets (n=6-8/dose) following a single oral dose of vehicle or AZD0328 (Table 3). Videotape recordings were used for observation of the animals up to 4 h after dose for quantitation and timing of emetic behaviours, characterised as retches (abdominal contractions), vomits and wet-dog shakes.
# FFX Sprague Dawley rats = assay: Hippocampal long-term potentiation in vivo; set-up: species or system rat; conditions: 0.3 mg/kg
# Method: AZD0328 reversed a deficit in hippocampal long-term potentiation (LTP) in FFX Sprague Dawley rats (Table 2). […] 0.3 mg/kg of AZD0328 was ineffective in this test.
# Mouse lymphoma = Mouse lymphoma test; type: cell-based
# Text: The genotoxic potential of AZD0328 has been evaluated in the Ames test and in the Mouse lymphoma test. AZD0328 was not mutagenic in either of these tests.
# [5] = CNS side effects in rhesus monkeys; conditions: rhesus monkey, in vivo, po, read-out: NOAEL for decreased spatial working memory performance and CNS side effects (oral movements)
# Method: CNS side effects and decreased spatial working memory performance only occurred together in monkeys administered high dose AZD0328. The NOAEL for decreased spatial working memory performance and oral movements in rhesus monkeys was determined to be 0.016 mg/kg. Doses projected to produce therapeutic benefits in human subjects are those doses that were effective in functional assays across three species and were below the NOAEL for adverse effects on cognitive function and general behaviour in rhesus monkeys (<0.016 mg/kg). Doses projected to produce therapeutic benefits in human subjects therefore fall in the range 0.0001-0.01 mg/kg.
# [6] = Pentylenetetrazole-induced seizure threshold; conditions: in vivo; rat, oral; read-out: NOAEL, proconvulsant activity
# Method: AZD0328 was assessed for its ability to influence the threshold to clonic convulsions caused by an intravenous infusion of pentylenetetrazole (PTZ) in rats (Table 3).
# [7] = target: T1, hERG-encoded potassium channel (Homo sapiens, UniProt Q12809); assay: hERG patch clamp; type: cell-based; conditions: HEK cells, read-out: IC50, block of hERG tail current (estimated)
# T1 construct: expressed in transfected cells; host or cells: HEK cells
# T1 sequence (Q12809 whole entry): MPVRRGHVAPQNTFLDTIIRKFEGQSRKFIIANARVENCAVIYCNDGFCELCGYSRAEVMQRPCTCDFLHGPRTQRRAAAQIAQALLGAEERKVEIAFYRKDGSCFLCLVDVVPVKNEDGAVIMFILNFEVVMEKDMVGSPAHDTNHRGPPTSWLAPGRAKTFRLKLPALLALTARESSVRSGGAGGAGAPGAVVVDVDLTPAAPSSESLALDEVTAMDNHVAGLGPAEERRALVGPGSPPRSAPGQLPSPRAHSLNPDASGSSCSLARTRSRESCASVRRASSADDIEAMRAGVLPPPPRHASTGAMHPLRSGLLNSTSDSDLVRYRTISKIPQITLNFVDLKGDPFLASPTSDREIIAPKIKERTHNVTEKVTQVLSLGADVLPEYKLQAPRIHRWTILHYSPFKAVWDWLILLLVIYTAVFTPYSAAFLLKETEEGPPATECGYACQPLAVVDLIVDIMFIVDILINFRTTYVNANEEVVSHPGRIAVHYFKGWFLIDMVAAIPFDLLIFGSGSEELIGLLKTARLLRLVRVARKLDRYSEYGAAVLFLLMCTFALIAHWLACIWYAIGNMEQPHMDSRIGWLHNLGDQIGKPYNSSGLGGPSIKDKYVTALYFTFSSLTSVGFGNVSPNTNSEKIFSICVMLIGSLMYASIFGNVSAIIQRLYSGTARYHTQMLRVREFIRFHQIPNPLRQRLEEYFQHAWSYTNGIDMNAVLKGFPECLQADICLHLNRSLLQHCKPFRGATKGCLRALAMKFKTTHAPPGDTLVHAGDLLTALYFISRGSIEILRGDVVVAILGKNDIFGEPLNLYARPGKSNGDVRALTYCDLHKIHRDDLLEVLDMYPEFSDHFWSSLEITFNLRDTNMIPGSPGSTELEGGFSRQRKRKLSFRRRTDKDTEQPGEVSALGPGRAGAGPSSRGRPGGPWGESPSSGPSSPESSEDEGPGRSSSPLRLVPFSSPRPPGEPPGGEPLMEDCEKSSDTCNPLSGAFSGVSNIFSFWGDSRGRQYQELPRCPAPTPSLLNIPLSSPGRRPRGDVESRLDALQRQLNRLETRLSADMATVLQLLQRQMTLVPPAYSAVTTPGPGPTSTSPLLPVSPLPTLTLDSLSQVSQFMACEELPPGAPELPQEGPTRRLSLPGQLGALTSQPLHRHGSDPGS
# Method: A study was performed to evaluate the effects of AZD0328 on the α-subunit of the voltage-dependent potassium channel encoded by the human ether-a-go-go-related gene (hERG), using the patch clamp technique (Table 3).
# [8] = rabbit 2F, DMB15, subcutaneous 1.15 mg/kg (3 μmol/kg)
# [9] = rabbit 3F, DMB15, subcutaneous 0.115 mg/kg (0.3 μmol/kg)
# [10] = rabbit 3F, DMB15, subcutaneous 0.269 mg/kg (0.7 μmol/kg)
# [11] = rabbit 3F, DMB15, subcutaneous 0.384 mg/kg (1 μmol/kg)
# [12] = rabbit 3F, DMB15, subcutaneous 3.84 mg/kg (10 μmol/kg)
compound,measurement,setting,value
"c1cnc2c(c1)C[C@@]1(CN3CCC1CC3)O2 [AZD0328, (R)-Spiro[1-azabicyclo[2.2.2]octane-3,2′(3′H)-furo[2,3-b]pyridine]]","concentration with significant prolongation of APD50, APD70 and APD90",dog Purkinje fibre,≥ 5.6 µM
same,NOAEL,[1],5.6 mg/kg
same,"Dose active: [125I]-α-bungarotoxin binding ex vivo, increased receptor number",[2],0.1 µg/kg
same,AUC,[3]; [8],636 ng·h/mL to 846 ng·h/mL and 2.9 µM·h to 3.9 µM·h
same,Cmax,[3]; [8],224 ng/mL to 296 ng/mL and 1.04 µM to 1.37 µM
same,Tmax,[3]; [8],18 to 60 min
same,AUC,[3]; [9],50.2 ng·h/mL and 0.205 µM·h
same,Cmax,[3]; [9],24.7 ng/mL and 111 nM
same,Tmax,[3]; [9],19 to 58.2 min
same,AUC,[3]; [10],0.872 µM·h
same,Cmax,[3]; [10],138 ng/mL and 583 nM
same,Tmax,[3]; [10],13 to 29 min
same,AUC,[3]; [11],232 ng·h/mL and 1.01 µM·h
same,Cmax,[3]; [11],78.1 ng/mL and 317 nM
same,Tmax,[3]; [11],15 to 121 min
same,AUC,[3]; [12],2510 ng·h/mL and 11.6 µM·h
same,Cmax,[3]; [12],677 ng/mL and 3.13 µM
same,Tmax,[3]; [12],29 to 131 min
same,AUC/dose,[3]; [8],0.212-0.282
same,AUC/dose,[3]; [9],0.148 ± 0.038
same,AUC/dose,[3]; [10],0.270 ± 0.106
same,AUC/dose,[3]; [12],0.251 ± 0.129
same,dose with slight QT prolongation (ECG),dogs,≥ 8.6 mg/kg
same,Cmax,[4],2.8 to 14 µM
same,dose with statistically significant difference from vehicle for retches,ferrets; oral,5.6 mg/kg
same,emetic responses,"ferrets; oral gavage 5.6, 16.9 or 56.2 mg/kg",emetic responses were present at all doses
same,effect on hippocampal LTP,FFX Sprague Dawley rats,ineffective
same,mutagenicity,Mouse lymphoma,not mutagenic
same,NOAEL,[5],0.016 mg/kg
same,NOAEL,[6],64.9 mg/kg
same,IC50,[7],32 µM
